Reference: ChEMBL document CHEMBL4507285, “Data for DCP probe MRL-SYKi” (2021)

Key:
[1] = tested on: Tyrosine-protein kinase ABL1 (Homo sapiens), P00519 [F317I]; conditions: Compound concentration 100.0 nM
[2] = biological target: Atypical kinase COQ8A, mitochondrial (Homo sapiens) (UniProt Q8NI60); conditions: Compound concentration 100.0 nM
[3] = biological target: Cytoplasmic tyrosine-protein kinase BMX (Homo sapiens) (UniProt P51813); conditions: Compound concentration 100.0 nM
[4] = biological target: Cyclin-dependent kinase 11A (Homo sapiens) (UniProt Q9UQ88); conditions: Compound concentration 100.0 nM
[5] = biological target: Cyclin-dependent kinase 13 (Homo sapiens) (UniProt Q14004); conditions: Compound concentration 100.0 nM
[6] = biological target: Cyclin-dependent kinase 3 (Homo sapiens) (UniProt Q00526); conditions: Compound concentration 100.0 nM
[7] = biological target: Cyclin-dependent kinase 4 (Homo sapiens) (UniProt P11802); conditions: Compound concentration 100.0 nM
Chain of Cyclin-dependent kinase 4 (Homo sapiens) (P11802 whole entry): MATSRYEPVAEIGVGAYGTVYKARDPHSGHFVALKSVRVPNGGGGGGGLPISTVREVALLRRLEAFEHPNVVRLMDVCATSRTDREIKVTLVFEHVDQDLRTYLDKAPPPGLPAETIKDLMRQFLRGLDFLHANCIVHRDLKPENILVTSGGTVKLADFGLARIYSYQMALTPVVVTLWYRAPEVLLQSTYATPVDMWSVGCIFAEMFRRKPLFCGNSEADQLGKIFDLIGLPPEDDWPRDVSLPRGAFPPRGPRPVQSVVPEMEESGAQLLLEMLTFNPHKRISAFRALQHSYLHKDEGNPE

[8] = biological target: Myotonin-protein kinase (Homo sapiens) (UniProt Q09013); conditions: Compound concentration 100.0 nM
[9] = tested on: Epidermal growth factor receptor (Homo sapiens), P00533 [L858R,T790M]; conditions: Compound concentration 100.0 nM
[10] = biological target: Eukaryotic translation initiation factor 2-alpha kinase 1 (Homo sapiens) (UniProt Q9BQI3); conditions: Compound concentration 100.0 nM
Chain of Eukaryotic translation initiation factor 2-alpha kinase 1 (Homo sapiens) (Q9BQI3 whole entry): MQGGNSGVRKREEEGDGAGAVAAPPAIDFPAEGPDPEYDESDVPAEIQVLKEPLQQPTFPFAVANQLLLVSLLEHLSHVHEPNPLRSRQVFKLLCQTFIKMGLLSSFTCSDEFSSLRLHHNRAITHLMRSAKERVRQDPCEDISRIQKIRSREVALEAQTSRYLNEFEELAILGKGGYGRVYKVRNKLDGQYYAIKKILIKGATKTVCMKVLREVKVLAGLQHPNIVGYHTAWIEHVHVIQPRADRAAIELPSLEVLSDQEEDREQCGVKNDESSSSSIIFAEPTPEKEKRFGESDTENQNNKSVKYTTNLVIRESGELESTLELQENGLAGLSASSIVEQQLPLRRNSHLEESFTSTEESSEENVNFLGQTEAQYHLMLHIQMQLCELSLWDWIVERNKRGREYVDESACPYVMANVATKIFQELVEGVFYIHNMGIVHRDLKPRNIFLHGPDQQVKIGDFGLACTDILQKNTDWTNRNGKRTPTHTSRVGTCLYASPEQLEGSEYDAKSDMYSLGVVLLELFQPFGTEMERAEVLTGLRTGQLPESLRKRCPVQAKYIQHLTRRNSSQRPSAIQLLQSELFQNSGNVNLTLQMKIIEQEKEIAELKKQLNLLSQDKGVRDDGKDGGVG

[11] = biological target: Ephrin type-A receptor 1 (Homo sapiens) (UniProt P21709); conditions: Compound concentration 100.0 nM
Chain of Ephrin type-A receptor 1 (Homo sapiens) (P21709 whole entry): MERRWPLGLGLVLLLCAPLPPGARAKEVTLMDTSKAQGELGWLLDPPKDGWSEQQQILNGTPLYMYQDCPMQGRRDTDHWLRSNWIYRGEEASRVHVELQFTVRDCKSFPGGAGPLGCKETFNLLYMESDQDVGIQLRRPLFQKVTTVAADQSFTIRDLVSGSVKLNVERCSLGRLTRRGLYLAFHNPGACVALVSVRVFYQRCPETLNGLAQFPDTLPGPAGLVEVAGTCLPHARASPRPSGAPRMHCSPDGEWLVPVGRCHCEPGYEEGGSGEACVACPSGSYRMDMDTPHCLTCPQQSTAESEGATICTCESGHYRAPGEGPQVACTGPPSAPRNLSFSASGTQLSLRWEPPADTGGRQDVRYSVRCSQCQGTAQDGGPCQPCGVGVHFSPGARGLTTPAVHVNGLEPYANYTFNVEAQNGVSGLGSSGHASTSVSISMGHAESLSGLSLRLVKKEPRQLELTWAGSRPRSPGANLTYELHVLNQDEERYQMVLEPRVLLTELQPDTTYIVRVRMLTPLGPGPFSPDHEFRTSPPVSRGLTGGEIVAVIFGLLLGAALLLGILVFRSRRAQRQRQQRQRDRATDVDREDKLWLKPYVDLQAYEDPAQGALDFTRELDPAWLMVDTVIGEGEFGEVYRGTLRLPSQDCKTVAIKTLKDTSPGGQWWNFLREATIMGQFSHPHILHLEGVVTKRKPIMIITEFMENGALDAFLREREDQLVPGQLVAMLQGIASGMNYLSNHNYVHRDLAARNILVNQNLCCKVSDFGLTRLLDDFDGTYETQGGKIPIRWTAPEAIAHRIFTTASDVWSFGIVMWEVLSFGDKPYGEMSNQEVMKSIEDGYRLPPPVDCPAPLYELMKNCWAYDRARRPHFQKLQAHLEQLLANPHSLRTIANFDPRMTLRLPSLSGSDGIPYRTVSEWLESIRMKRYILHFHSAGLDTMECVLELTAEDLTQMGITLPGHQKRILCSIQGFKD

[12] = biological target: Receptor tyrosine-protein kinase erbB-3 (Homo sapiens) (UniProt P21860); conditions: Compound concentration 100.0 nM
[13] = biological target: Serine/threonine-protein kinase/endoribonuclease IRE1 (Homo sapiens) (UniProt O75460); conditions: Compound concentration 100.0 nM
[14] = biological target: Rhodopsin kinase GRK7 (Homo sapiens) (UniProt Q8WTQ7); conditions: Compound concentration 100.0 nM
[15] = biological target: Glycogen synthase kinase-3 beta (Homo sapiens) (UniProt P49841); conditions: Compound concentration 100.0 nM
[16] = biological target: Homeodomain-interacting protein kinase 4 (Homo sapiens) (UniProt Q8NE63); conditions: Compound concentration 100.0 nM
[17] = biological target: Interleukin-1 receptor-associated kinase 3 (Homo sapiens) (UniProt Q9Y616); conditions: Compound concentration 100.0 nM
[18] = biological target: Serine/threonine-protein kinase LATS2 (Homo sapiens) (UniProt Q9NRM7); conditions: Compound concentration 100.0 nM
[19] = biological target: Serine/threonine-protein kinase MARK2 (Homo sapiens) (UniProt Q7KZI7); conditions: Compound concentration 100.0 nM
[20] = biological target: MAP kinase-interacting serine/threonine-protein kinase 2 (Homo sapiens) (UniProt Q9HBH9); conditions: Compound concentration 100.0 nM
[21] = biological target: Serine/threonine-protein kinase 38 (Homo sapiens) (UniProt Q15208); conditions: Compound concentration 100.0 nM
[22] = biological target: Serine/threonine-protein kinase 38-like (Homo sapiens) (UniProt Q9Y2H1); conditions: Compound concentration 100.0 nM
[23] = biological target: Mitogen-activated protein kinase 14 (Homo sapiens) (UniProt Q16539); conditions: Compound concentration 100.0 nM
[24] = biological target: Mitogen-activated protein kinase 12 (Homo sapiens) (UniProt P53778); conditions: Compound concentration 100.0 nM
[25] = biological target: Serine/threonine-protein kinase PAK 3 (Homo sapiens) (UniProt O75914); conditions: Compound concentration 100.0 nM
[26] = biological target: Cyclin-dependent kinase 15 (Homo sapiens) (UniProt Q96Q40); conditions: Compound concentration 100.0 nM
[27] = tested on: Phosphatidylinositol 4,5-bisphosphate 3-kinase catalytic subunit alpha isoform (Homo sapiens), P42336 [E542K]; conditions: Compound concentration 100.0 nM
[28] = tested on: Phosphatidylinositol 4,5-bisphosphate 3-kinase catalytic subunit alpha isoform (Homo sapiens), P42336 [I800L]; conditions: Compound concentration 100.0 nM
[29] = biological target: Phosphatidylinositol 4,5-bisphosphate 3-kinase catalytic subunit delta isoform (Homo sapiens) (UniProt O00329); conditions: Compound concentration 100.0 nM
Chain of Phosphatidylinositol 4,5-bisphosphate 3-kinase catalytic subunit delta isoform (Homo sapiens) (O00329 whole entry, canonical isoform): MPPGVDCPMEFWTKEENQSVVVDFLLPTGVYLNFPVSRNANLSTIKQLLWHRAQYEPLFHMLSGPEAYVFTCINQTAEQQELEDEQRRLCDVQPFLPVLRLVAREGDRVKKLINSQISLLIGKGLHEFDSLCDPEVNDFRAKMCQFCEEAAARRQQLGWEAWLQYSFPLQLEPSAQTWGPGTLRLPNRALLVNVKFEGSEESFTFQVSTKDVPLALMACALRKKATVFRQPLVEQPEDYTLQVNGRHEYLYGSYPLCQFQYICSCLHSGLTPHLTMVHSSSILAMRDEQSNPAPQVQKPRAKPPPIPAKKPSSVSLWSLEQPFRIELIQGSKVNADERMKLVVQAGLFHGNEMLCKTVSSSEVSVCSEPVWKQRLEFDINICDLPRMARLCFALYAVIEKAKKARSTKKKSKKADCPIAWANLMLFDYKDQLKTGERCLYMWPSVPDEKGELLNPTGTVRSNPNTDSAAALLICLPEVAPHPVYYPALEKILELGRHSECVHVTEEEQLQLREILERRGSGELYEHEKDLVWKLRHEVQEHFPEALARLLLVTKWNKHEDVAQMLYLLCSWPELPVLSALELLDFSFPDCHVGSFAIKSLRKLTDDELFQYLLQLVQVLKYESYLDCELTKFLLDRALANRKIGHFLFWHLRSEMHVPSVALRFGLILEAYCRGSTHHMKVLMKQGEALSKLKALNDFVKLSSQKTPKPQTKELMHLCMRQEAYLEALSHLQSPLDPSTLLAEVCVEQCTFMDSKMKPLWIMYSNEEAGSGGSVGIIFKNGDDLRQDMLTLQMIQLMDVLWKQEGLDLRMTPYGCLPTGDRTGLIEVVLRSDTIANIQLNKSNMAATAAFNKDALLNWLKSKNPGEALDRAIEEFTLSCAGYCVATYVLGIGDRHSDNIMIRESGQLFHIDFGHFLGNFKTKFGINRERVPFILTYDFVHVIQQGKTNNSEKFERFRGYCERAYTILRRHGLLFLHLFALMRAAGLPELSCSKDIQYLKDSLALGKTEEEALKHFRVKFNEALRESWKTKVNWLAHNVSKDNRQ

[30] = biological target: Phosphatidylinositol 5-phosphate 4-kinase type-2 beta (Homo sapiens) (UniProt P78356); conditions: Compound concentration 100.0 nM
Chain of Phosphatidylinositol 5-phosphate 4-kinase type-2 beta (Homo sapiens) (P78356 whole entry): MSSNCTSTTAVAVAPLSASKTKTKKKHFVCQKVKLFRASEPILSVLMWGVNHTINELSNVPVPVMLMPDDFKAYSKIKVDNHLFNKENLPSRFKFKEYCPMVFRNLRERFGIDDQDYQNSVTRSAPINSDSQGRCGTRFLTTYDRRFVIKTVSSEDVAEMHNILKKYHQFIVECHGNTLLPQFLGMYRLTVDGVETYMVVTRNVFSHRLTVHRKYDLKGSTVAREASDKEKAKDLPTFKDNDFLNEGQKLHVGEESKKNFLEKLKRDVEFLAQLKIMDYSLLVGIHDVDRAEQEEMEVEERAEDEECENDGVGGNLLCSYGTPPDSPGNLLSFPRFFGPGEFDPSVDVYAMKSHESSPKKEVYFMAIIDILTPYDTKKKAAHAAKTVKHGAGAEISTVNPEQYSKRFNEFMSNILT

[31] = biological target: Phosphatidylinositol 5-phosphate 4-kinase type-2 gamma (Homo sapiens) (UniProt Q8TBX8); conditions: Compound concentration 100.0 nM
Chain of Phosphatidylinositol 5-phosphate 4-kinase type-2 gamma (Homo sapiens) (Q8TBX8 whole entry): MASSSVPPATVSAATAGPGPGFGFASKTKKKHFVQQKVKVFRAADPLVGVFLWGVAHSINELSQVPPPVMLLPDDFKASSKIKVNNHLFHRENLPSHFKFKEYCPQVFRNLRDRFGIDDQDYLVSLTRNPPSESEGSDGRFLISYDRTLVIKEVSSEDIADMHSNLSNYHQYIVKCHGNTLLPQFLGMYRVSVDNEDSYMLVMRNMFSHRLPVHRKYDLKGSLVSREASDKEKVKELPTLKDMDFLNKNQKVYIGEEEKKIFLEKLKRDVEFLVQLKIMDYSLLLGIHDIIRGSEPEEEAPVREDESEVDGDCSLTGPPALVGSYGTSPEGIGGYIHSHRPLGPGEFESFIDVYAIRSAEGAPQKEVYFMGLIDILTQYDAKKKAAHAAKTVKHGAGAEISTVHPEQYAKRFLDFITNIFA

[32] = biological target: Serine/threonine-protein kinase D1 (Homo sapiens) (UniProt Q15139); conditions: Compound concentration 100.0 nM
[33] = biological target: Ribosomal protein S6 kinase alpha-2 (Homo sapiens) (UniProt Q15349); conditions: Compound concentration 100.0 nM
[34] = biological target: Ribosomal protein S6 kinase beta-1 (Homo sapiens) (UniProt P23443); conditions: Compound concentration 100.0 nM
[35] = biological target: Serine/threonine-protein kinase SIK2 (Homo sapiens) (UniProt Q9H0K1); conditions: Compound concentration 100.0 nM
[36] = biological target: Proto-oncogene tyrosine-protein kinase Src (Homo sapiens, UniProt P12931); conditions: Compound concentration 100.0 nM
[37] = biological target: TGF-beta receptor type-2 (Homo sapiens) (UniProt P37173); conditions: Compound concentration 100.0 nM
[38] = biological target: TRAF2 and NCK-interacting protein kinase (Homo sapiens) (UniProt Q9UKE5); conditions: Compound concentration 100.0 nM
[39] = biological target: High affinity nerve growth factor receptor (Homo sapiens, UniProt P04629); conditions: Compound concentration 100.0 nM
Chain of High affinity nerve growth factor receptor (P04629 33-796 limits assumed): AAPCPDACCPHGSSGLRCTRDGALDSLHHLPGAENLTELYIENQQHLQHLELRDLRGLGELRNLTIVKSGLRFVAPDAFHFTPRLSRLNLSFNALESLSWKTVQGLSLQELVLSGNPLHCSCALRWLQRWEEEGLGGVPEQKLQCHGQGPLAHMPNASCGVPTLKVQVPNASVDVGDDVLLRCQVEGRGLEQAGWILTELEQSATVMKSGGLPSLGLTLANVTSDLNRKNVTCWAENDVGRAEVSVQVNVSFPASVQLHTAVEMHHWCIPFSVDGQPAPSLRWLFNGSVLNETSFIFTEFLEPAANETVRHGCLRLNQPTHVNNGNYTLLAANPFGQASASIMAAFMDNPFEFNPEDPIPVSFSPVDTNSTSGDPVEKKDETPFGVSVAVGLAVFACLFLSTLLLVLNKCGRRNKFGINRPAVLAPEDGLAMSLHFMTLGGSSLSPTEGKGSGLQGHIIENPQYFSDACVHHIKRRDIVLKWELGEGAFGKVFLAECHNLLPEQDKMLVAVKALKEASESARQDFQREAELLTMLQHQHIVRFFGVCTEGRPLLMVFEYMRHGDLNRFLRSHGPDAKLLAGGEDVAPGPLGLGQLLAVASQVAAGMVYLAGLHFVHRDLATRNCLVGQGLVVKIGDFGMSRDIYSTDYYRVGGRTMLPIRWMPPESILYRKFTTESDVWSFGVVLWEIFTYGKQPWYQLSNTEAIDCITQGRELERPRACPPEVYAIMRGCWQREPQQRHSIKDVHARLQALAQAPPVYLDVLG

[40] = biological target: Dual specificity protein kinase TTK (Homo sapiens) (UniProt P33981); conditions: Compound concentration 100.0 nM
[41] = biological target: Serine/threonine-protein kinase ULK2 (Homo sapiens) (UniProt Q8IYT8); conditions: Compound concentration 100.0 nM
[42] = biological target: Wee1-like protein kinase 2 (Homo sapiens) (UniProt P0C1S8); conditions: Compound concentration 100.0 nM
[43] = biological target: 5-hydroxytryptamine receptor 2B (Homo sapiens, UniProt P41595); conditions: Compound concentration 10.0 uM
[44] = biological target: Kappa-type opioid receptor (Homo sapiens) (UniProt P41145); conditions: Compound concentration 10.0 uM
[45] = biological target: Alpha-2B adrenergic receptor (Homo sapiens) (UniProt P18089); conditions: Compound concentration 10.0 uM
Chain of Alpha-2B adrenergic receptor (Homo sapiens) (P18089 whole entry): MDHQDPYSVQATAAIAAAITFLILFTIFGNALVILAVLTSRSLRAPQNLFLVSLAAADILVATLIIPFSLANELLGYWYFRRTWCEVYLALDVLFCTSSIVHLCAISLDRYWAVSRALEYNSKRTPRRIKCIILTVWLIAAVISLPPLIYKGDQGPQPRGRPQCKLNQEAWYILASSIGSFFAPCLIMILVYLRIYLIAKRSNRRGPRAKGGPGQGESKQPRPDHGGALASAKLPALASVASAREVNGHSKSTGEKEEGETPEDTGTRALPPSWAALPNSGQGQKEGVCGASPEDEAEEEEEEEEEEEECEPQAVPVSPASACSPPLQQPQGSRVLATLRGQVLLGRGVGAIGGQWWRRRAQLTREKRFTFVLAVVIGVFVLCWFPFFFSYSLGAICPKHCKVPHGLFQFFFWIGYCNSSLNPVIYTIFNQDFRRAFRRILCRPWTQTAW

## Cc1ccc(-c2cnc([C@@]3(O)CC[C@H](C(=O)O)C(C)(C)C3)s2)cc1Nc1cccc(C(F)(F)F)n1 [MRL-SYKi-NC]
[1]
  residual activity: 84.1%
[2]
  residual activity: 100%
[3]
  residual activity: 100%
[4]
  residual activity: 100%
[5]
  residual activity: 45.7%
[6]
  residual activity: 92.9%
[7]
  residual activity: 100%
[8]
  residual activity: 93.7%
[9]
  residual activity: 100%
[10]
  residual activity: 83.4%
[11]
  residual activity: 100%
[12]
  residual activity: 100%
[13]
  residual activity: 68.6%
[14]
  residual activity: 75.4%
[15]
  residual activity: 95.6%
[16]
  residual activity: 97.7%
[17]
  residual activity: 93%
[18]
  residual activity: 90.6%
[19]
  residual activity: 100%
[20]
  residual activity: 100%
[21]
  residual activity: 87.9%
[22]
  residual activity: 100%
[23]
  residual activity: 97%
[24]
  residual activity: 98.8%
[25]
  residual activity: 76.3%
[26]
  residual activity: 89.7%
[27]
  residual activity: 87.4%
[28]
  residual activity: 76.7%
[29]
  residual activity: 98.8%
[30]
  residual activity: 61.3%
[31]
  residual activity: 97.5%
[32]
  residual activity: 90.1%
[33]
  residual activity: 100%
[34]
  residual activity: 85.9%
[35]
  residual activity: 88.9%
[36]
  residual activity: 100%
[37]
  residual activity: 100%
[38]
  residual activity: 75.8%
[39]
  residual activity: 64.5%
[40]
  residual activity: 78.8%
[41]
  residual activity: 76%
[42]
  residual activity: 89.5%
[43]
  inhibition: 77.9%
[44]
  inhibition: -5.83%
[45]
  inhibition: 27%

## Cc1cc(Nc2nccc(C)n2)cc(-c2cnc([C@@]3(O)CC[C@H](C(=O)O)C(C)(C)C3)s2)c1 [MRL-SYKi]
[1]
  residual activity: 100%
[2]
  residual activity: 100%
[3]
  residual activity: 95.1%
[4]
  residual activity: 86.1%
[5]
  residual activity: 89.5%
[6]
  residual activity: 100%
[7]
  residual activity: 85.4%
[8]
  residual activity: 99.8%
[9]
  residual activity: 46.2%
[10]
  residual activity: 100%
[11]
  residual activity: 100%
[12]
  residual activity: 66.6%
[13]
  residual activity: 90.2%
[14]
  residual activity: 100%
[15]
  residual activity: 100%
[16]
  residual activity: 75.6%
[17]
  residual activity: 44.7%
[18]
  residual activity: 100%
[19]
  residual activity: 100%
[20]
  residual activity: 74.7%
[21]
  residual activity: 80.6%
[22]
  residual activity: 100%
[23]
  residual activity: 100%
[24]
  residual activity: 31.2%
[25]
  residual activity: 100%
[26]
  residual activity: 100%
[27]
  residual activity: 66.5%
[28]
  residual activity: 95.1%
[29]
  residual activity: 100%
[30]
  residual activity: 79.6%
[31]
  residual activity: 91.9%
[32]
  residual activity: 100%
[33]
  residual activity: 100%
[34]
  residual activity: 78.2%
[35]
  residual activity: 95.7%
[36]
  residual activity: 53.7%
[37]
  residual activity: 49.5%
[38]
  residual activity: 100%
[39]
  residual activity: 30.2%
[40]
  residual activity: 74.8%
[41]
  residual activity: 100%
[42]
  residual activity: 100%
[43]
  inhibition: 6.38%
[44]
  inhibition: 30.6%
[45]
  inhibition: -7.14%
